Values quoted from earlier work in patent publication US7985754B2, “Selective antagonists of A2A adenosine receptors” (Trovis Pharmaceuticals, LLC, priority 2006, dated 2011).

Assays:
[1] = in words
[2] = in words; remark: listed apart in the source

SMILES | solubility [1] | bioavailability [2]
Nc1nc2c(cnn2CCc2ccccc2)c2nc(-c3ccco3)nn12 [SCH58261] | very poorly soluble | 
Nc1nc(NCCc2ccc(O)cc2)nc2nc(-c3ccco3)nn12 [ZM241385] |  | poor bioavailability
